From patent publication US20110086762A1, “4'4'-Dioxaspiro-Spirocyclically Substituted Tetramates” (Bayer CropScience AG, priority 2008, published 2011)

Legend:
Tetranychus urticae [1] = experiment: Example C-3: plot trial on cotton 'Fibermax 977' against Tetranychus urticae; assay type: in vivo; settings: 9 g a.i./ha, standard (EC 018), two applications 8 days apart
Procedure: In plots of a size of 15 m^2, cotton plants of the cultivar “Fibermax 977” are treated in three replications against Tetranychus urticae using a pressure-operated knapsack sprayer (4 bar). Here, the active compound A.5 is applied as SC050 and SL050 at the stated application rate in a tank mix of 1 g/l of ammonium sulphate and 1 g/l of a.i. rapeseed oil methyl ester EW 500 and the standard abamectin (EC 018) using an application rate of in each case 300 l of water/ha. Two applications are carried out at an interval of 8 days. Evaluation is carried out 3, 7, 11 and 15 days after the first application by scoring the kill of the spider mites on the leaves.

[2] = Penetration of active compounds through enzymatically isolated cuticles of apple leaves; assay type: in vitro ADME, apple trees of the Golden Delicious variety; settings: apple leaf cuticles, 20° C., 60% rh, average of 8 to 10 measurements
Description: Boosting of penetration into the plant by ammonium salts or phosphonium salts, and synergistic boosting of penetration into the plant by ammonium/phosphonium salts in combination with penetration promoters This test measured the penetration of active compounds through enzymatically isolated cuticles of apple leaves. The leaves used were cut in the fully developed state from apple trees of the Golden Delicious variety. The cuticles were isolated as follows: • first of all, leaf discs labelled on the underside with dye and formed by punching were filled by means of vacuum infiltration with a pectinase solution (0.2% to 2% strength) buffered to a pH of between 3 and 4, • sodium azide was then added and • the leaf discs thus treated were left to stand until the original leaf structure broke down and the non-cellular cuticle underwent detachment. After that, only those cuticles from the top leaf sides that were free from stomata and hairs were used further. They were washed a number of times in alternation with water and with a buffer solution, pH 7. […] Penetration was determined by applying 10 μl of the spray liquor of the composition below to the outer side of each of the cuticles. […] At regular intervals, samples were taken using an autosampler, and the amount of active compound was determined using HPLC. […]

Myzus persicae = Myzus persicae test MYZUPE (bell pepper plants); assay type: in vivo, green peach aphid (Myzus persicae)
Procedure: (§1) Solvent: 7 parts by weight of dimethylformamide Emulsifier: 2 parts by weight of alkylaryl polyglycol ether To produce a suitable preparation of active compound, 1 part by weight of active compound is mixed with the stated amounts of solvent and emulsifier, and the concentrate is diluted with emulsifier-containing water to the desired concentration. If the addition of ammonium salts, penetrant or ammonium salts and penetrant is required, these are pipetted in at a concentration of 1000 ppm after dilution of the respective finished solution of the preparation. Bell pepper plants (Capsicum annuum) which are heavily infested by the green peach aphid (Myzus persicae) are treated by spraying with the active compound preparation of the desired concentration. After the desired period of time, the kill in % is determined. Here, 100% means that all of the animals have been killed; 0% means that none of the animals have been killed.

Aphis gossypii [3] = experiment: Aphis gossypii test, APHIGO spray treatment (cotton leaves); assay type: in vivo, cotton aphid (Aphis gossypii); settings: active compound conc. 0.8 ppm
Procedure: as §1, with “the preparation. Cotton leaves (Gossypium hirsutum) which are” for “the preparation. Bell pepper plants (Capsicum annuum) which are”, “by the cotton aphid (Aphis” for “by the green peach aphid (Myzus”, “cotton aphid (Aphis gossypii) are sprayed” for “peach aphid (Myzus persicae) are treated”, “gossypii) are sprayed with an” for “persicae) are treated by spraying with the”, “sprayed with an active compound” for “spraying with the active compound”, “of the aphids have been” for “of the animals have been”

Aphis gossypii [4] = experiment: Example C-2: plot trial on cotton 'Fibermax' against Aphis gossypii; assay type: in vivo; settings: 105 g a.i./ha, standard (SC 050)
Procedure: In plots of a size of 10 m^2, cotton plants of the cultivar “Fibermax” are treated in three replications against Aphis gossypii using a pressure-operated knapsack sprayer (2.5 bar). Here, the active compound A.5 is applied as SC050 and SL050 at the stated application rate in a tank mix of 1 g/l of ammonium sulphate and 1 g/l of a.i. rapeseed oil methyl ester EW 500 in comparison to the standard imidacloprid (SC 050) using an application rate of 300 l of water/ha. Evaluation is carried out 3, 6, 9, 13 and 17 days after the application by counting the number of live animals on the leaves. Subsequently, the efficacy in percent is calculated according to Henderson and Tilton.

Tetranychus urticae [5] = experiment: Tetranychus test, OP-resistant (bean plants); assay type: in vivo, greenhouse red spider mite (Tetranychus urticae); settings: TETRUR, active compound conc. 4 ppm
Procedure: Solvent: 7 parts by weight of dimethylformamide Emulsifier: 2 parts by weight of alkylaryl polyglycol ether To produce a suitable preparation of active compound, 1 part by weight of active compound is mixed with the stated amounts of solvent and emulsifier, and the concentrate is diluted with emulsifier-containing water to the desired concentration. If the addition of ammonium salts, penetrant or ammonium salts and penetrant is required, these are pipetted in at a concentration of 1000 ppm after dilution of the respective finished solution of the preparation. Bean plants (Phaseolus vulgaris) which are heavily infested by all stages of the greenhouse red spider mite (Tetranychus urticae) are treated by spraying with the active compound preparation of the desired concentration. After the desired period of time, the effect in % is determined. Here, 100% means that all of the spider mites have been killed; 0% means that none of the spider mites have been killed.

For abamectin, the “Effect Abbott (%) Tetranychus urticae 3 d” value (Tetranychus urticae [1]; 3 d after first application) was 49.3%, the “Effect Abbott (%) Tetranychus urticae 7 d” value (Tetranychus urticae [1]; 7 d after first application) was 27.2% and the “Effect Abbott (%) Tetranychus urticae 11 d” value (Tetranychus urticae [1]; 11 d after first application) was 5.8%. The “Effect Abbott (%) Tetranychus urticae 15 d” value (Tetranychus urticae [1]; 15 d after first application) was 40.7%.

For `Cc1cc(Cl)cc(C)c1C1=C(O)C2(CCC3(CC2)OCCO3)NC1=O` [Example A.5], the “Penetration after 24 h” value ([2]; SC 050 + RME (1 g/l) + AS (1 g/l)) was 3% and the “Penetration after 24 h” value ([2]; SL 050 + RME (1 g/l) + AS (1 g/l)) was 7%.

In the case of `Cc1cc(Cl)cc(C)c1C1C(=O)NC2(CCC3(CC2)OCCO3)C1=O` (stereo not shown) [Ex. I-1-a-4, 8,8′-ethylenedioxy-3-[(2,6-dimethyl-4-chloro)-phenyl]-1-azaspiro[4,5]-decane-2,4-dione], the “% effect after 7 d” value (Myzus persicae; active compound conc. 10 ppm) is reported as 75%.

For `Cc1cc(C)c(C2=C(O)C3(CCC4(CC3)OCCO4)NC2=O)c(C)c1.[K+]` [Example A.1], the “% effect after 7 d” value (Myzus persicae; active compound conc. 0.8 ppm) was 75%.

With `Cc1cc(C)c(C2=C(O)C3(CCC4(CC3)OCCO4)NC2=O)c(C)c1` [A.3] the “% effect after 7 d” value (Aphis gossypii [3]) was 75% and the “% effect after 7 d” value (Myzus persicae; active compound conc. 0.8 ppm) was 75%.

For `Cc1cc(Cl)cc(C)c1C1=C(O)C2(CCC3(CC2)OCCO3)NC1=O` [A.6], the “% effect after 7 d” value (Myzus persicae; active compound conc. 10 ppm) was 95%.

For `O=[N+]([O-])NC1=NCCN1Cc1ccc(Cl)nc1` [imidacloprid], the “Efficacy (% H + T) Aphis gossypii 3 d” value (Aphis gossypii [4]; 3 d) was 78.1%, the “Efficacy (% H + T) Aphis gossypii 6 d” value (Aphis gossypii [4]; 6 d) was 84.1% and the “Efficacy (% H + T) Aphis gossypii 9 d” value (Aphis gossypii [4]; 9 d) was 83.7%. For the same compound, the “Efficacy (% H + T) Aphis gossypii 13 d” value (Aphis gossypii [4]; 13 d) was 82.0% and the “Efficacy (% H + T) Aphis gossypii 17 d” value (Aphis gossypii [4]; 17 d) was 64.7%.

In the case of `Cc1cc(Cl)cc(C)c1C1=C(O)C2(CCC3(CC2)OCCO3)NC1=O` [A.4], the “% effect after 7 d” value (Myzus persicae; active compound conc. 10 ppm) is reported as 100%.

With `Cc1cc(C)c(C2=C(O)C3(CCC4(CC3)OCCO4)NC2=O)c(C)c1` [A.2] the “% effect after 7 d” value (Tetranychus urticae [5]) was 70% and the “% effect after 7 d” value (Myzus persicae; active compound conc. 0.8 ppm) was 90%.
